Experimental data taken from PubChem BioAssay (NCI).
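Tested at 5 concentrations; 48 h exposure; 96-well plates; endpoints linearly interpolated, else capped at highest concentration. TGI: total growth inhibition.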

How the values were obtained:
Experiment in all cases: NCI tumour cell line growth inhibition, 48 h
[1] = test system: NCI/ADR-RES ovarian
[2] = test system: NCI-H522 lung
[3] = test system: RXF 393 renal
[4] = test system: HL-60(TB) leukemia
[5] = test system: HCT-15 colon
[6] = test system: UACC-257 melanoma
[7] = test system: SK-OV-3 ovarian
[8] = test system: NCI-H226 lung
[9] = test system: KM12 colon
[10] = test system: SF-539 CNS
[11] = test system: HCC-2998 colon
[12] = test system: SK-MEL-5 melanoma
[13] = test system: ACHN renal
[14] = test system: T-47D breast
[15] = test system: OVCAR-4 ovarian
[16] = test system: M14 melanoma
[17] = test system: SW-620 colon

Structure (SMILES): COc1cc2c(cc1OC)C(=O)C1(C2)[C@H](c2ccccc2)C2C(=O)c3cc(OC)c(OC)cc3C2[C@H]1c1ccccc1 (some centres undefined)
- TGI [1]: > 100 µM
- TGI [2]: > 100 µM
- TGI [3]: > 100 µM
- TGI [4]: > 100 µM
- TGI [5]: > 100 µM
- TGI [6]: > 100 µM
- TGI [7]: > 100 µM
- TGI [8]: > 100 µM
- TGI [9]: > 100 µM
- TGI [10]: > 100 µM
- TGI [11]: > 100 µM
- TGI [12]: > 100 µM
- TGI [13]: > 100 µM
- TGI [14]: > 100 µM
- TGI [15]: > 100 µM
- TGI [16]: > 100 µM
- TGI [17]: > 100 µM

Structure (SMILES): COc1cc2c(cc1OC)CC1c3cc(OC)c(OC)cc3CCN1CC2 (centres undefined)
- TGI [1]: > 100 µM
- TGI [2]: > 100 µM
- TGI [3]: > 100 µM
- TGI [4]: > 100 µM
- TGI [5]: > 100 µM
- TGI [6]: > 100 µM
- TGI [7]: > 100 µM
- TGI [8]: > 100 µM
- TGI [9]: > 100 µM
- TGI [10]: > 100 µM
- TGI [11]: > 100 µM
- TGI [12]: > 100 µM
- TGI [13]: > 100 µM
- TGI [14]: > 100 µM
- TGI [15]: > 100 µM
- TGI [16]: > 100 µM
- TGI [17]: > 100 µM

Structure (SMILES): CC(=O)c1ccc2c(c1)CC1(C2)Cc2ccc3c(c2C1=O)CCC3 (centres undefined)
- TGI [1]: 71.9 µM
- TGI [2]: 54.6 µM
- TGI [3]: 97 µM
- TGI [4]: 48.3 µM
- TGI [5]: > 100 µM
- TGI [6]: 38.2 µM
- TGI [7]: > 100 µM
- TGI [8]: > 100 µM
- TGI [9]: > 100 µM
- TGI [10]: > 100 µM
- TGI [11]: 37.8 µM
- TGI [12]: 28.4 µM
- TGI [13]: > 100 µM
- TGI [14]: 94.5 µM
- TGI [15]: > 100 µM
- TGI [16]: 64.8 µM
- TGI [17]: > 100 µM

Structure (SMILES): CSc1nc(C)c(CCOC(C)=O)c(Cl)n1
- TGI [1]: > 100 µM
- TGI [2]: > 100 µM
- TGI [3]: > 100 µM
- TGI [4]: > 100 µM
- TGI [5]: > 100 µM
- TGI [6]: > 100 µM
- TGI [7]: > 100 µM
- TGI [8]: > 100 µM
- TGI [9]: > 100 µM
- TGI [10]: > 100 µM
- TGI [11]: > 100 µM
- TGI [12]: > 100 µM
- TGI [13]: > 100 µM
- TGI [14]: > 100 µM
- TGI [15]: > 100 µM
- TGI [16]: > 100 µM
- TGI [17]: > 100 µM

Structure (SMILES): COc1cc(/C=C\c2nnc(/C=C\c3ccc(O)c(OC)c3)s2)ccc1O
- TGI [1]: 14.2 µM
- TGI [2]: 5.57 µM
- TGI [3]: 4.75 µM
- TGI [4]: 5.45 µM
- TGI [5]: 18.1 µM
- TGI [6]: > 30.7 µM
- TGI [7]: 30.6 µM
- TGI [8]: 39 µM
- TGI [9]: 15.4 µM
- TGI [10]: > 26.4 µM
- TGI [11]: 12.9 µM
- TGI [12]: 3.42 µM
- TGI [13]: 22.3 µM
- TGI [14]: 7.38 µM
- TGI [15]: 19.9 µM
- TGI [16]: 9.58 µM
- TGI [17]: > 23.7 µM

Structure (SMILES): C[N+](C)(C)CC(=O)N/N=C(\C(=O)NC1=C(Cl)C(=O)c2ccccc2C1=O)C(C#N)c1nc(-c2ccc([N+](=O)[O-])cc2)cs1 (centres undefined)
- TGI [1]: > 57.5 µM
- TGI [2]: 19.2 µM
- TGI [3]: 30.2 µM
- TGI [4]: 47.4 µM
- TGI [5]: 18.8 µM
- TGI [6]: 9.11 µM
- TGI [7]: 41.8 µM
- TGI [8]: 38.6 µM
- TGI [9]: 63.7 µM
- TGI [10]: 22.3 µM
- TGI [11]: 30.5 µM
- TGI [12]: 2.7 µM
- TGI [13]: 26 µM
- TGI [14]: 37.9 µM
- TGI [15]: 23.3 µM
- TGI [16]: 8.65 µM
- TGI [17]: 31.6 µM

Structure (SMILES): COc1cccc(Nc2nc(N)nc(N)c2N)c1
- TGI [1]: > 100 µM
- TGI [2]: > 100 µM
- TGI [3]: > 100 µM
- TGI [4]: > 100 µM
- TGI [5]: > 100 µM
- TGI [6]: > 100 µM
- TGI [7]: > 100 µM
- TGI [8]: > 100 µM
- TGI [9]: > 100 µM
- TGI [10]: > 100 µM
- TGI [11]: > 100 µM
- TGI [12]: 88.2 µM
- TGI [13]: > 100 µM
- TGI [14]: > 100 µM
- TGI [15]: > 100 µM
- TGI [16]: > 100 µM
- TGI [17]: 91.1 µM
